Results published in ChEMBL document CHEMBL5653597, “CI-1033, an irreversible pan-erbB receptor inhibitor and its potential application for the treatment of breast cancer” (Semin Oncol, 2003).
Where a name gives a salt, the structure may show the parent alone.

Columns and labels:
Design in all cases: species or system Homo sapiens
[1] = Inhibition of purified PDGFR (unknown origin)
[2] = Inhibition of purified FGFR (unknown origin)
[3] = Inhibition of purified CDK2/Cyclin A (unknown origin)

IC50 [1]: > 50 µM
IC50 [2]: > 50 µM
IC50 [3]: > 50 µM
Compound: C=CC(=O)Nc1cc2c(Nc3ccc(F)c(Cl)c3)ncnc2cc1OCCCN1CCOCC1 [CANERTINIB DIHYDROCHLORIDE]
